One data set concerns H2030. The experiment in a line: Cell growth inhibition (CellTiter-Glo), NSCLC line H2030. In kind it is cell-based. The conditions noted are these: H2030 non-small cell lung cancer cell line, 4 days. The protocol: (§1) Cell growth inhibitory activity of representative BET bromodomain degraders in representative non-small cell lung cancer cell lines was determined using the CellTiter-Glo® Luminescent Cell Viability Assay. Cells were seeded in 384-well white opaque cell culture plates at a density of 2,000 cells/well with serially diluted compounds and incubated at 37° C. in an atmosphere of 95% air and 5% CO2 for 4 days. Cell viability was determined using the CellTiter-Glo® Luminescent Cell Viability Assay Kit (Promega, Madison, Wis.) according to the manufacture's instruction. Briefly, a volume of CellTiter-Glo® Reagent equal to the volume of cell culture medium was added to each well, and then the plates were incubated at room temperature for 10-20 minutes. The luminescent signal was measured using a Tecan Infinite M1000 multimode microplate reader (Tecan, Morrisville, N.C.). The half maximal inhibitory concentration (IC50) was calculated using the GraphPad Prism 5 software (GraphPad Software, La Jolla, Calif.). Cpd. A is a BET bromodomain inhibitor, see U.S. Appl.
A general note: In ATP-based viability assays light output follows the ATP content of the culture.

A further data set deals with T84. The experiment in a line: Cell growth inhibition (CellTiter-Glo), colon cancer line T84. In kind it is cell-based. The protocol: as §1, with “Appl. No. 62/121,637, having the following structure:” for “Appl.”
(§2) Cell growth inhibitory activity of representative BET bromodomain degraders in representative colon cancer cell lines, see Table 7, was determined as described in Example 17.

In the next data set the test system is SKLU-1. The experiment in a line: Cell growth inhibition (CellTiter-Glo), NSCLC line SKLU-1. The format is cell-based. Particulars: SKLU-1 non-small cell lung cancer cell line, 4 days. How it is done:
as §1

In a further data set the test system is SW620. The experiment in a line: Cell growth inhibition (CellTiter-Glo), colon cancer line SW620. The format is cell-based. The protocol: as §1, with “Appl. No. 62/121,637, having the following structure:” for “Appl.”
as §2

In the next data set the test system is H1648. Put plainly: Cell growth inhibition (CellTiter-Glo), NSCLC line H1648. In kind it is cell-based. The conditions noted are these: H1648 non-small cell lung cancer cell line, 4 days. The protocol:
as §1

For the next data set, the system named is RKO. The experiment in a line: Cell growth inhibition (CellTiter-Glo), colon cancer line RKO. The format is cell-based. How it is done: as §1, with “Appl. No. 62/121,637, having the following structure:” for “Appl.”
as §2

The next data set has as its system MDA-MB-453 xenograft. The experiment in a line: In vivo antitumor activity in MDA-MB-453 xenograft model. The conditions noted are these: for weight loss or apparent toxicity: MDA-MB-453 xenograft model (data not shown). The protocol:
For the in vivo efficacy experiments of this example, when tumors reached 80-200 mm^3, SCID mice were randomized into groups. Cpd. A, Cpd. No. 4, Cpd. No. 6, or vehicle control (10% PEG400: 3% Cremophor: 87% PBS, or 2% TPGS:98% PEG200) was given at the dose and duration indicated. Tumor sizes and animal weights were measured 2-3 times per week. Tumor volume (mm^3)=(length×width^2)/2. Tumor growth inhibition was calculated as TGI (%)=(Vc−Vt)/(Vc−Vo)*100, where Vc, Vt are the median of control and treated groups at the end of the study and Vo at the start. All the in vivo studies were performed under an animal protocol approved by the University Committee on Use and Care of Animals of the University of Michigan, in accordance with the recommendations in the Guide for the Care and Use of Laboratory Animals of the National Institutes of Health.
No. 4 was determined in xenograft tumor models of TNBC cell lines.

A further data set concerns H1650. The experiment in a line: Cell growth inhibition (CellTiter-Glo), NSCLC line H1650. In kind it is cell-based. The conditions noted are these: H1650 non-small cell lung cancer cell line, 4 days. The protocol:
as §1

For the next data set, the system named is H1792. The experiment in a line: Cell growth inhibition (CellTiter-Glo), NSCLC line H1792. The format is cell-based. Particulars: H1792 non-small cell lung cancer cell line, 4 days. The protocol:
as §1

The next data set relates to HCC1428. The experiment in a line: Cell growth inhibition (CellTiter-Glo), breast cancer line HCC1428. In kind it is cell-based. Particulars: 4 days. How it is done: Cell growth inhibitory activity of representative BET bromodomain degraders in representative breast cancer cell lines was determined using the CellTiter-Glo® Luminescent Cell Viability Assay. SUM-52 and SUM-159 cell lines were established at the University of Michigan Comprehensive Cancer Center. All the other breast cancer cell lines were obtained from the ATCC (Manassas, Va.). Cells were seeded in 384-well cell culture plates at a density of 1,000-2,500 cells/well with serially diluted compounds and incubated at 37° C. in an atmosphere of 95% air and 5% CO2 for 4 days. Cell viability was determined using the CellTiter-Glo® Luminescent Cell Viability Assay Kit (Promega, Madison, Wis.) according to the manufacture's instruction. Briefly, a volume of CellTiter-Glo® Reagent equal to the volume of cell culture medium was added to each well, and then the plates were incubated at room temperature for 20-60 minutes. The luminescent signal was measured using a Tecan Infinite M1000 multimode microplate reader (Tecan, Morrisville, N.C.). The half maximal inhibitory concentration (IC50) was calculated using the GraphPad Prism 5 software (GraphPad Software, La Jolla, Calif.). “Thd” is thalidomide.

The subject of another data set is SW1412. The experiment in a line: Cell growth inhibition (CellTiter-Glo), colon cancer line SW1412. In kind it is cell-based. The protocol:
as §1, with “Appl. No. 62/121,637, having the following structure:” for “Appl.”
as §2

The subject of another data set is MOLM-13. The experiment in a line: Cell growth inhibition (CellTiter-Glo), MOLM-13. In kind it is cell-based. Particulars: Homo sapiens, MOLM-13, 96 h, MOLM-13 cells, 4 days. How it is done:
Cell growth inhibitory activity of representative BET bromodomain degraders was determined using CellTiter-Glo® Luminescent Cell Viability Assay. Cells were seeded in 384-well white opaque cell culture plates at a density of 2,000 cells/well with serially diluted compounds and incubated at 37° C. in an atmosphere of 95% air and 5% CO2 for 4 days. Cell viability was determined using the CellTiter-Glo® Luminescent Cell Viability Assay Kit (Promega, Madison, Wis.) according to the manufacture's instruction. Briefly, a volume of CellTiter-Glo® Reagent equal to the volume of cell culture medium was added to each well, and then the plates were incubated at room temperature for 10-20 minutes. The luminescent signal was measured using a Tecan Infinite M1000 multimode microplate reader (Tecan, Morrisville, N.C.). The half maximal inhibitory concentration (IC50) was calculated using the GraphPad Prism 5 software (GraphPad Software, La Jolla, Calif.).

Structures are written as SMILES. Read-outs that look alike come from different tables or passages of the source.

A word on the IC50: it is the concentration that gives 50% inhibition. Take `CCn1nc(C2CC2)cc1Nc1nc(COC)nc2[nH]c3cc(-c4c(C)noc4C)c(OC)cc3c12` [Cpd. A, reference compound]: the IC50 in the data set on H2030 (Homo sapiens, NCI-H2030, 96 h) was 110 nM; in the data set on T84 (Homo sapiens), 413 ± 100 nM; with SKLU-1 (Homo sapiens, SK-LU-1, 96 h), 40 nM; in the data set on SW620 (Homo sapiens, SW-620), above 2500 nM; in the data set with H1648 (Homo sapiens, NCI-H1648, 96 h) it was 140 nM; in the data set on RKO (Homo sapiens) it was 272 ± 235 nM. The IC50 in the data set on H1650 (Homo sapiens, NCI-H1650, 96 h) turned out to be 430 nM; in the data set with H1792 (Homo sapiens, NCI-H1792, 96 h), 130 nM; in the data set with HCC1428 (Homo sapiens, 96 h), 50 nM; with SW1412, 40 ± 20 nM. Besides, in the data set with MDA-MB-453 xenograft, the “weight loss or apparent toxicity” value was “No significant weight loss”. Besides, the tumor growth result in the data set with MDA-MB-453 xenograft (MDA-MB-453 xenograft model, 50 mg/kg, daily, 5 days a week for 2 weeks) is “did not inhibit tumor growth”.

In the case of `CCn1nc(C2CC2)cc1Nc1nc(C(=O)NCCCOCCOCCOCCCNc2cccc3c2C(=O)N(C2CCC(=O)NC2=O)C3=O)nc2[nH]c3cc(-c4c(C)noc4C)c(OC)cc3c12` (stereo not shown) [Cpd. No. 4], the half-maximal inhibitory concentration (IC50) in the data set with H2030 (Homo sapiens, NCI-H2030, 96 h) was 137 nM; in the data set on T84 (Homo sapiens) it was 110 ± 30 nM; in the data set on SKLU-1 (Homo sapiens, SK-LU-1, 96 h) it was 3 nM; in the data set on SW620 (Homo sapiens, SW-620), 38 ± 5 nM; in the data set on H1648 (Homo sapiens, NCI-H1648, 96 h) it was 5 nM; in the data set on RKO (Homo sapiens), 46 ± 1 nM. In addition, the IC50 in the data set on MOLM-13 was found to be 0.7 nM; with H1650 (Homo sapiens, NCI-H1650, 96 h) it was 4 nM; in the data set with H1792 (Homo sapiens, NCI-H1792, 96 h) it was 48 nM; in the data set on HCC1428 (Homo sapiens, 96 h) it was 13 nM; in the data set on SW1412, 9 ± 4 nM. For the same molecule, in the data set with MDA-MB-453 xenograft, the “weight loss or apparent toxicity” value is reported as “No significant weight loss”. Moreover, the tumor growth result in the data set with MDA-MB-453 xenograft (MDA-MB-453 xenograft model in mice (FIG. 9)) is listed as “reduces tumor growth”. Besides, the “TGI (%)” value in the data set on MDA-MB-453 xenograft (MDA-MB-453 xenograft model, 5 mg/kg, at the end of study (FIG. 9)) was 85%.

With `CCn1nc(C2CC2)cc1Nc1nc(C(=O)NCCCCNc2cccc3c2C(=O)N(C2CCC(=O)NC2=O)C3=O)nc2[nH]c3cc(-c4c(C)noc4C)c(OC)cc3c12` (stereo not shown) [Cpd. No. 9], the IC50 stood at 269 nM in the data set with H2030 (Homo sapiens, NCI-H2030, 96 h); 690 ± 300 nM in the data set on T84 (Homo sapiens); 11 nM in the data set with SKLU-1 (Homo sapiens, SK-LU-1, 96 h); 1040 ± 1040 nM with SW620 (Homo sapiens, SW-620); 22 nM with H1648 (Homo sapiens, NCI-H1648, 96 h); 241 ± 27 nM in the data set with RKO (Homo sapiens). Moreover, the IC50 in the data set with MOLM-13 worked out at 1.2 nM; in the data set on H1650 (Homo sapiens, NCI-H1650, 96 h), 8 nM; in the data set with H1792 (Homo sapiens, NCI-H1792, 96 h), 151 nM; with SW1412, 34 ± 20 nM.

Consider `Cc1sc2c(c1C)C(c1ccc(Cl)cc1)=N[C@@H](CC(=O)NCCCCNC(=O)COc1cccc3c1C(=O)N(C1CCC(=O)NC1=O)C3=O)c1nnc(C)n1-2` (stereo partly shown) [dBET1, reference compound], for which the IC50 with H2030, in the data set with T84, in the data set on SKLU-1, in the data set on SW620, in the data set on H1648 and in the data set with RKO was above 5000 nM each time. The IC50 in the data set on H1650 was 2300 nM; in the data set with H1792, above 5000 nM; with HCC1428, above 5000 nM; with SW1412 it was above 5000 nM.

(Values after patent US10633386B2, “BET protein degraders” (THE REGENTS OF THE UNIVERSITY OF MICHIGAN, priority 2016, dated 2020).)
